# Several values for one entry are separate records, joined by “and”; a condition that tells them apart may be missing. Equal entries are not always repeated.
# Tests used:
# DRD2 F1103.28A = DRD2 F1103.28A (Homo sapiens, UniProt P14416, F110A); type: binding; parameters: expressed in transfected cells; host or cells: HEK293T (ATCC CRL-11268); conditions: DRD2 F1103.28A; read-out: Ki
# 320 non-olfactory GPCRs = type: cell-based; conditions: compound at 1 μM
# DRD2 (D2 long receptor) = DRD2 (D2 long receptor) (Homo sapiens, UniProt P14416); assay: β-arrestin2 recruitment (Tango), HTLA cells; type: cell-based; conditions: for response, concentration-response data point (replicates): Fig_S10a, drug alone
# Sequence of DRD2 (D2 long receptor) (P14416 whole entry): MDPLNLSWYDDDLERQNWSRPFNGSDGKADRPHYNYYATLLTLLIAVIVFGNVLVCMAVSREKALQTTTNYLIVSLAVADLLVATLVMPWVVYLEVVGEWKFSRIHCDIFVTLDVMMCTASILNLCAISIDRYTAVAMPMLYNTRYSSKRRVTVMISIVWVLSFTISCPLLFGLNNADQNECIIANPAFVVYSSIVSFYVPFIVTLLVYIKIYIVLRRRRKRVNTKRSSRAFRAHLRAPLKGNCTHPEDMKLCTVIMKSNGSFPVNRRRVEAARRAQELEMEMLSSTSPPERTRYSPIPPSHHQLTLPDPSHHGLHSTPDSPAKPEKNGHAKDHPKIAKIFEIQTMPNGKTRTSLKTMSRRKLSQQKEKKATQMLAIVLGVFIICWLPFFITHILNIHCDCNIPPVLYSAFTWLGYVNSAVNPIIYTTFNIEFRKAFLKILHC
# DRD4 (D4.4 variant) = molecular target: T1, DRD4 (D4.4 variant) (Homo sapiens, UniProt P21917); assay: β-arrestin2 recruitment (Tango); type: cell-based; conditions: DRD4; Tango; read-out: EC50 ± SEM
# T1 sequence (P21917 1-419): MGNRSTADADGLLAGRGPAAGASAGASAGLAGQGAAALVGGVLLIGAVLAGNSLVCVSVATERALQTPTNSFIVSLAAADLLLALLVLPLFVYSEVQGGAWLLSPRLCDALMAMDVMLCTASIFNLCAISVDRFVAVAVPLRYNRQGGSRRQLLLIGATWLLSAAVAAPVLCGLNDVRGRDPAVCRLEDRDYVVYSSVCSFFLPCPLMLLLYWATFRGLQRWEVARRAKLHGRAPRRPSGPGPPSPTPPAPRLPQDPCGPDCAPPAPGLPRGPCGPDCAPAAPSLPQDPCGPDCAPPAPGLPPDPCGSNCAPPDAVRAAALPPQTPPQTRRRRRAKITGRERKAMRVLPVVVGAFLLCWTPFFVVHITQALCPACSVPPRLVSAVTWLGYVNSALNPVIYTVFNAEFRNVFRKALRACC
# Sequence of DRD2 F1103.28A (P14416 whole entry F110A): as the sequence (P14416 whole entry) above, with F110A counted along it
smiles,measurement,setting,value
CCOc1cccc2cc([C@@H](C)NCC3(O)CCCCC3)oc12 [O4RE6],Ki,DRD2 F1103.28A,490 nM
same,agonism across 320 nonolfactory GPCRs,320 non-olfactory GPCRs,agonist efficacy at DRD2 and DRD3
same,β-arrestin2 recruitment agonist activity,"DRD2 (D2 long receptor); DRD2, Tango",full agonist
same,EC50,"DRD2 (D2 long receptor); DRD2, β-arrestin2 recruitment (Tango), read-out: EC50 ± SEM",48.8 ± 9.47 nM
same,"response, concentration-response data point (replicates)",DRD2 (D2 long receptor); Log[Drug] -5,104.045 and 116.205 and 96.7104 and 116.434 and 93.993 and 105.729 and 95.4582 and 106.414 and 85.5052
same,"response, concentration-response data point (replicates)",DRD2 (D2 long receptor); Log[Drug] -5.52,89.1788 and 85.4445 and 90.8217 and 84.5796 and 80.0855 and 101.122 and 96.0613 and 81.9697 and 99.3385
same,"response, concentration-response data point (replicates)",DRD2 (D2 long receptor); Log[Drug] -6,82.8973 and 82.5495 and 79.2486 and 94.3704 and 78.2631 and 78.6908 and 80.3531 and 91.2175 and 73.5194
same,"response, concentration-response data point (replicates)",DRD2 (D2 long receptor); Log[Drug] -6.52,72.8482 and 85.473 and 74.6038 and 82.6009 and 103.942 and 82.378 and 70.1593 and 68.4699 and 74.397
same,"response, concentration-response data point (replicates)",DRD2 (D2 long receptor); Log[Drug] -7,71.4846 and 69.3009 and 62.1089 and 68.8602 and 55.9009 and 59.7861 and 54.6819 and 54.8285 and 54.3284
same,"response, concentration-response data point (replicates)",DRD2 (D2 long receptor); Log[Drug] -7.52,50.7715 and 50.9759 and 58.0792 and 57.6214 and 43.2407 and 45.9376 and 55.9749 and 62.7315 and 56.5853
same,"response, concentration-response data point (replicates)",DRD2 (D2 long receptor); Log[Drug] -8,39.7841 and 36.3747 and 29.4664 and 31.1292 and 29.8397 and 30.2988 and 27.2382 and 26.622 and 26.0732
same,"response, concentration-response data point (replicates)",DRD2 (D2 long receptor); Log[Drug] -8.52,13.2168 and 14.3867 and 13.161 and 13.9303 and 10.9069 and 10.856 and 10.5462 and 11.4912 and 11.2421
same,"response, concentration-response data point (replicates)",DRD2 (D2 long receptor); Log[Drug] -9,7.123 and 6.617 and 6.837 and 5.043 and 6.064 and 6.895 and 5.588 and 6.122 and 5.826
same,"response, concentration-response data point (replicates)",DRD2 (D2 long receptor); Log[Drug] -11,5.0524
same,"response, concentration-response data point (replicates)",DRD2 (D2 long receptor); Log[Drug] -11.52,4.975 and 5.004 and 4.993 and 4.845 and 4.81 and 4.615 and 4.945 and 4.7318 and 4.6555
same,"response, concentration-response data point (replicates)",DRD2 (D2 long receptor); Log[Drug] -12,4.9053 and 4.975 and 5.325 and 4.582 and 4.593 and 4.629 and 5.065 and 4.845 and 4.581
same,Emax,"DRD2 (D2 long receptor); HTLA, read-out: Emax relative to quinpirole response, DRD2, Tango",99.6%
same,"β-arrestin2 recruitment response at DRD2 (source data, replicate values)",DRD2 (D2 long receptor); Log[Drug] -5,73.5777 and 57.7969 and 60.7943 and 65.7822 and 71.9755 and 71.4753 and 62.0106
same,"β-arrestin2 recruitment response at DRD2 (source data, replicate values)",DRD2 (D2 long receptor); Log[Drug] -5.52,50.6787 and 47.7474 and 41.401 and 56.0167 and 52.8546 and 51.367 and 55.6817
same,"β-arrestin2 recruitment response at DRD2 (source data, replicate values)",DRD2 (D2 long receptor); Log[Drug] -6,39.3966 and 41.1099 and 37.2084 and 41.7585 and 38.5021 and 38.079 and 42.2149
same,"β-arrestin2 recruitment response at DRD2 (source data, replicate values)",DRD2 (D2 long receptor); Log[Drug] -6.52,17.548 and 17.9218 and 22.2395 and 30.2893 and 22.7451 and 19.4102 and 21.7916
same,"β-arrestin2 recruitment response at DRD2 (source data, replicate values)",DRD2 (D2 long receptor); Log[Drug] -7,9.564 and 7.739 and 7.708 and 7.415 and 7.649 and 7.113 and 9.501
same,"β-arrestin2 recruitment response at DRD2 (source data, replicate values)",DRD2 (D2 long receptor); Log[Drug] -7.52,5.75 and 5.841 and 5.282 and 5.619 and 6.782 and 5.749 and 5.8801
same,"β-arrestin2 recruitment response at DRD2 (source data, replicate values)",DRD2 (D2 long receptor); Log[Drug] -8,5.434 and 5.45 and 5.389 and 5.042 and 5.329 and 5.148 and 5.345
same,"β-arrestin2 recruitment response at DRD2 (source data, replicate values)",DRD2 (D2 long receptor); Log[Drug] -8.52,5.277 and 5.01 and 4.9419 and 4.98 and 5.0858 and 5.308 and 5.178
same,"β-arrestin2 recruitment response at DRD2 (source data, replicate values)",DRD2 (D2 long receptor); Log[Drug] -9,5.4097 and 5.385 and 5.128 and 4.863 and 4.947 and 4.805 and 4.8829
same,"β-arrestin2 recruitment response at DRD2 (source data, replicate values)",DRD2 (D2 long receptor); Log[Drug] -9.52,5.139 and 4.887 and 4.831 and 4.75 and 5.079 and 5.123 and 4.823
same,"β-arrestin2 recruitment response at DRD2 (source data, replicate values)",DRD2 (D2 long receptor); Log[Drug] -10,5.431 and 4.786 and 4.659 and 4.856 and 4.756 and 4.79 and 4.8682
same,"β-arrestin2 recruitment response at DRD2 (source data, replicate values)",DRD2 (D2 long receptor); Log[Drug] -10.52,5.022 and 4.798 and 4.776 and 4.763 and 4.86 and 4.945 and 4.841
same,"β-arrestin2 recruitment response at DRD2 (source data, replicate values)",DRD2 (D2 long receptor); Log[Drug] -11,4.915 and 4.765 and 4.615 and 4.7302 and 4.774 and 4.749 and 4.971
same,"β-arrestin2 recruitment response at DRD2 (source data, replicate values)",DRD2 (D2 long receptor); Log[Drug] -11.52,4.946 and 4.662 and 4.627 and 4.695 and 4.751 and 4.656 and 4.732
same,EC50,DRD4 (D4.4 variant),> 10 µM

# From article PMC7044277 (Nature Communications, 2020)
